Key:
Runx2 and TAZ = assay: Western blot of osteoblast differentiation mark factors; format: cell-based, mouse; details: C3H/10T1/2 treated for 6 days
Description: An aliquot 116V and an aliquot 116VI extracted and partitioned from sponges are dissolved in a DMSO solvent, and used to treat the C3H/10T1/2 cell line, mesenchymal progenitor cells, at concentrations of 1, 2.5, 5, 10, and 20 ug/ml. […] Since then, the same experiment was performed on the compound (1163), the compound 2 (1162), the compound 3 (1161), and the compound 4 (1164), which were purely separated from the aliquots 116V and 116VI, and as a result, it could be confirmed that the osteoblast differentiation ability was increased in the compounds 1, 3, and 4. […] To study a mechanism with respect to osteoblast differentiation ability, the C3H/10T1/2 cell lines were treated with the compound 1 and the compound 4 for 6 days, respectively. […] Also, the C3H/10T1/2 cell lines were treated with the compound 1 and the compound 4 for 6 days, respectively. […] Furthermore, it could be ascertained that combining of Runx2 and TAZ proteins was increased by treatment of the compounds and thus the activity of Runx2-meditated transcription was increased. The compound 5, which is an ester derivative of the compound 1 (1163), was synthesized in order to prepare a material having more excellent bioactivity, and the structure of the compound 5 obtained thus was determined. […]

C3H/10T1/2 cells = assay: Adipocyte differentiation inhibitory ability (Oil Red O staining); format: cell-based, mouse
Description: C3H/10T1/2 cells, which are mouse mesenchymal progenitor cells purchased from ATCC, were diluted in DMEM (Dulbecco's Modified Eagle Medium) medium containing 5.958 g/L HEPES, 3.7 g/L sodium bicarbonate and 10% FBS (fetal bovine serum), and cultured in 24-well culture plates at a density of 4×10^4 cells/well, in the presence of 5% CO2 at 37° C. for 2 days. When the cultured cells were grown to 90˜100% confluency in the culture plates, the cells were cultured in DMEM medium containing 10% FBS, to which 5μ/ml insulin, 1 μM dexamethason, and 5 μM troglitazone were added, in the presence of 5% CO2 at 37° C. for 8 days, to induce differentiation into adipocyte. The medium was exchanged every other day during differentiation. The C3H/10T1/2 cell line, in which differentiation into the adipocyte was induced, was fixed with 3.7% formaldehyde at room temperature for 30 minutes. An oil Red O solution dissolved in isopropanol at a concentration of 0.5% was diluted in distilled water at a ratio of 6:4, filtered through a 0.2 μm filter, and poured to the fixed cell line, which was stained for 1 hour. In order to observe only the cells differentiated into the adiopocyte, the dye solution was removed and the cells were washed with distilled water two times.
116V specimen extracted from sponge was dissolved in DMSO solvent, and allowed to treat C3H/10T1/2 cell lines, which are mouse mesenchymal progenitor cells, at concentrations of 1, 2.5, 5, 10, and 20 μg/ml. […] Then, after specimens of the compound 1 (1163), the compound 2 (1162), the compound 3 (1161), and the compound 4 (1164), which were purely separated from the 116V and 116VI species were obtained, the same experiment was performed. […] Remarkable cytotoxicity was not observed in each of the specimens during differentiation of adipocytes (FIG. 8).

CC(C)=CCC/C(C)=C/[C@H]1CC(C)=C[C@@]2(C=C(CO)[C@@H]3CC(=O)C(C)=C[C@@H]3O2)O1 [Compound 1]
protein expression of Runx2 and TAZ (Runx2 and TAZ): increased | adipocyte differentiation inhibitory ability at low concentration (C3H/10T1/2 cells; C3H/10T1/2, 1 μg/ml): remarkable adipocyte differentiation inhibitory ability | adipocyte differentiation ability (C3H/10T1/2 cells; C3H/10T1/2, 10 μg/ml): remarkably decreased

Reference: US8703813B2, “Compound with spiro chiral carbon backbone, preparation method thereof, and pharmaceutical composition containing the same” (SNU R & DB Foundation, priority 2008, dated 2014)
